Series [1] is described as follows: Fold resistance, ratio of EC50 for antiviral activity against drug-resistant HIV-1 Y181C mutant infected in human MT4 cells to EC50 for antiviral activity against […] HIV-1 infected in human MT4 cells. It counts as functional.
Series [2] addresses Human immunodeficiency virus type 1 reverse transcriptase (Human immunodeficiency virus 1, UniProt Q72547). As to the kind of experiment: Inhibition of recombinant wild-type p66/p51 HIV-1 reverse transcriptase incubated for 40 mins by picogreen dye-based spectrofluorometric analysis.
Series [3] can be described thus: Fold resistance, ratio of EC50 for antiviral activity against drug-resistant HIV-1 L100I mutant infected in human MT4 cells to EC50 for antiviral activity against […] HIV-1 infected in human MT4 cells. Type of series: functional.
Series [4] concerns Human immunodeficiency virus 1. Kind of series: Antiviral activity against drug-resistant HIV-1 E138K mutant infected in human MT4 cells assessed as reduction in virus-induced cytopathic effect incubated for 5 days by MTT assay. It counts as functional, organism-based. Particulars: Human immunodeficiency virus 1, E138K mutant, MT4, 120 h. (Damage to the host cells serves as the signal in cytopathic effect assays.)

Series [5] relates to Human immunodeficiency virus 1. Kind of series: Antiviral activity against drug-resistant HIV-1 Y181C mutant infected in human MT4 cells assessed as reduction in virus-induced cytopathic effect incubated for 5 days by MTT assay. Conditions: Human immunodeficiency virus 1, Y181C mutant, MT4, 120 h. It counts as functional, organism-based.
Series [6] deals with Human immunodeficiency virus 1. Kind of series: Antiviral activity against drug-resistant HIV-1 K103 N mutant infected in human MT4 cells assessed as reduction in virus-induced cytopathic effect incubated for 5 days by MTT assay. Conditions: Human immunodeficiency virus 1, K103 N mutant, MT4, 120 h. It counts as functional, organism-based.
The nature of series [7]: Fold resistance, ratio of EC50 for antiviral activity against drug-resistant HIV-1 K103 N mutant infected in human MT4 cells to EC50 for antiviral activity against […] HIV-1 infected in human MT4 cells. It counts as functional.
The nature of series [8]: Selectivity index, ratio of CC50 for human MT4 cells to EC50 for antiviral activity against NNRTI resistant HIV-1 infected in human MT4 cells. It counts as toxicity, cell-based. Conditions: read-out: Ratio CC50/EC50.
For series [9], the system named is Human immunodeficiency virus 1. Kind of series: Antiviral activity against drug-resistant HIV-1 Y188L mutant infected in human MT4 cells assessed as reduction in virus-induced cytopathic effect incubated for 5 days by MTT assay. It counts as functional, organism-based. Particulars: Human immunodeficiency virus 1, Y188L mutant, MT4, 120 h.
Series [10] in a line: Cytotoxicity against human MT4 cells assessed as cell growth inhibition incubated for 5 days by MTT assay. It counts as toxicity, cell-based. Particulars: time 5 day. On the technique in general: Tetrazolium assays rely on reduction of a dye to a coloured formazan, in cell work by metabolically active cells.
Series [11] concerns Human immunodeficiency virus 1. Kind of series: Antiviral activity against […] HIV-1 infected in human MT4 cells assessed as reduction in virus-induced cytopathic effect incubated for 5 days by MTT assay. Type of series: functional, organism-based. Particulars: Human immunodeficiency virus 1, MT4, 120 h.
The test system of series [12] is Human immunodeficiency virus 1. Kind of series: Antiviral activity against drug-resistant HIV-1 L100I mutant infected in human MT4 cells assessed as reduction in virus-induced cytopathic effect incubated for 5 days by MTT assay. Type of series: functional, organism-based. Conditions: Human immunodeficiency virus 1, L100I mutant, MT4, 120 h.
Series [13] in a line: Fold resistance, ratio of EC50 for antiviral activity against drug-resistant HIV-1 Y188L mutant infected in human MT4 cells to EC50 for antiviral activity against […] HIV-1 infected in human MT4 cells. Type of series: functional.
Series [14] is described as follows: Fold resistance, ratio of EC50 for antiviral activity against drug-resistant HIV-1 E138K mutant infected in human MT4 cells to EC50 for antiviral activity against […] HIV-1 infected in human MT4 cells. It counts as functional.

In general, IC50 refers to the concentration that gives 50% inhibition. For orientation: EC50 means the concentration giving half of the maximal effect. The CC50 is the concentration that lowers cell viability or growth by half.

On to `Cc1cccc(C(C#N)c2nc(SC(C)C)[nH]c(=O)c2C)c1` (configuration not stated), for which the “Ratio EC50” value was found to be 31 in series [1]; 15 in series [3]; 148 in [7]; 464 in [13]; 3 in series [14]. Besides, the IC50 in series [2] is 0.271 µM. Also, the EC50 is 0.37 µM in [4]; 4.41 µM in series [5]; 20.9 µM in [6]; 65.4 µM in series [9]; 0.141 µM in series [11]; 2.06 µM in [12]. For the same molecule, in series [8], the selectivity ratio was determined as 1180. The CC50 at 120 h in series [10] stood at 167 µM.
Regarding `Cc1c(C(C#N)c2ccc(F)cc2)nc(SC(C)C)[nH]c1=O` (configuration not stated), the “Ratio EC50” value in series [1] is listed as above 28; in [3] it was 16; in [7], above 28; in [13], above 28; in series [14] it was 3. In addition, the IC50 in series [2] worked out at 14.3 µM. Moreover, the EC50 in [4] was 12.6 µM; in series [5] it was above 113 µM; in series [6], above 113 µM; in series [9], above 113 µM; in series [11], 3.98 µM; in series [12] it was 63.5 µM. Further, the selectivity ratio in series [8] is 28. In addition, the CC50 at 120 h in [10] was 113 µM.
As for `COc1ccccc1C(C#N)c1nc(SC(C)C)[nH]c(=O)c1C` (configuration not stated), the “Ratio EC50” value in [1] is on record as 48; in [3] it was 10; in series [7], 88; in series [13], 687; in [14], 2. Besides, in series [2], the IC50 was 0.158 µM. Also, the EC50 is 0.09 µM in [4]; 1.91 µM in series [5]; 3.51 µM in series [6]; 27.5 µM in series [9]; 0.04 µM in series [11]; 0.4 µM in series [12]. In series [8], the selectivity ratio is above 9380. Further, the CC50 at 120 h in series [10] is above 379 µM.
For `Cc1ccccc1C(C#N)c1nc(SC(C)C)[nH]c(=O)c1C` (configuration not stated), the “Ratio EC50” value is given as 48 in series [1]; 28 in [3]; 416 in series [7]; 546 in [13]; 2 in series [14]. For the same molecule, the IC50 in [2] is 0.68 µM. The EC50 is 0.26 µM in [4]; 5.52 µM in [5]; 48.2 µM in series [6]; 63.4 µM in series [9]; 0.116 µM in [11]; 3.23 µM in series [12]. The selectivity ratio in series [8] came to 960. Besides, the CC50 at 120 h in [10] came to 111 µM.
On to `Cc1c(C(C#N)c2cccc3c2OCO3)nc(SC(C)C)[nH]c1=O` (configuration not stated), for which the “Ratio EC50” value is on record as 113 in series [1]; 22 in series [3]; above 214 in [7]; above 214 in series [13]; 4 in series [14]. Moreover, in series [2], the half-inhibitory concentration (IC50) worked out at 1.35 µM. Further, the EC50 in [4] is 1.94 µM; in series [5], 50.7 µM; in series [6] it was above 96.5 µM; in [9] it was above 96.5 µM; in series [11], 0.45 µM; in series [12], 10 µM. For the same molecule, the selectivity ratio in series [8] is 213. Further, in [10], the CC50 at 120 h was 96.5 µM.
For `Cc1c(C(C#N)c2ccc(C(C)C)cc2)nc(SC(C)C)[nH]c1=O` (configuration not stated), the “Ratio EC50” value was 17 in series [1]; 9 in series [3]; above 375 in series [7]; above 375 in [13]; 3 in series [14]. The half-inhibitory concentration (IC50) in series [2] turned out to be 2.15 µM. In addition, the EC50 was 1.5 µM in series [4]; 10.2 µM in series [5]; above 225 µM in series [6]; above 225 µM in [9]; 0.6 µM in [11]; 5.51 µM in series [12]. Further, in [8], the selectivity ratio was 376. In addition, the CC50 at 120 h in series [10] was 225 µM.
As for `Cc1ccc(C(C#N)c2nc(SC(C)C)[nH]c(=O)c2C)cc1` (configuration not stated), the “Ratio EC50” value is reported as above 40 in series [1]; above 40 in [3]; above 40 in series [7]; above 40 in series [13]; 2 in series [14]. The IC50 in series [2] was 0.667 µM. The EC50 was 0.63 µM in series [4]; above 12.9 µM in series [5]; above 12.9 µM in series [6]; above 12.9 µM in series [9]; 0.32 µM in series [11]; above 12.9 µM in [12]. The selectivity ratio in [8] came to 40. In addition, the CC50 at 120 h in [10] came out at 12.8 µM.
Consider `COc1cccc(C(C#N)c2nc(SC(C)C)[nH]c(=O)c2C)c1` (configuration not stated), for which the “Ratio EC50” value in series [1] is listed as 42; in series [3] it was 20; in series [7], 205; in [13] it was 450; in [14], 3. In series [2], the IC50 is 1.06 µM. Also, the EC50 was 0.36 µM in series [4]; 5.82 µM in [5]; 28.2 µM in [6]; 62 µM in series [9]; 0.138 µM in series [11]; 2.78 µM in series [12]. Also, in series [8], the selectivity ratio was 1280. The CC50 at 120 h in [10] is 176 µM.
For `COc1ccc(C(C#N)c2nc(SC(C)C)[nH]c(=O)c2C)cc1` (configuration not stated), the “Ratio EC50” value in series [1] is above 13; in series [3] it was 3; in series [7], above 13; in series [13], above 13; in series [14], 1. The IC50 in [2] is 20.7 µM. Also, the EC50 in [4] was 4.29 µM; in series [5] it was above 37.1 µM; in [6] it was above 37.1 µM; in series [9] it was above 37.1 µM; in [11], 2.92 µM; in [12], 9.7 µM. Also, the selectivity ratio in [8] was determined as 13. Also, the CC50 at 120 h in series [10] was found to be 37.1 µM.
As for `Cc1c(C(C#N)c2cc(F)cc(F)c2)nc(SC(C)C)[nH]c1=O` (configuration not stated), the “Ratio EC50” value is 17 in [1]; 36 in series [3]; 101 in [7]; above 396 in series [13]; 4 in series [14]. In [2], the IC50 is 1.29 µM. For the same molecule, the EC50 in series [4] is 1.91 µM; in [5], 8.7 µM; in series [6], 51.5 µM; in series [9], above 202 µM; in series [11] it was 0.51 µM; in series [12] it was 18.5 µM. Besides, the selectivity ratio in [8] was 394. Further, in [10], the half-maximal cytotoxic concentration (CC50) at 120 h worked out at 202 µM.
With `Cc1c(C(C#N)c2cccc(C(F)(F)F)c2)nc(SC(C)C)[nH]c1=O` (configuration not stated), the “Ratio EC50” value was 9 in series [1]; 11 in series [3]; above 57 in series [7]; above 65 in series [13]; 3 in [14]. Moreover, in [2], the IC50 amounted to 2.71 µM. The EC50 was 2.71 µM in series [4]; 9.98 µM in [5]; above 60.4 µM in series [6]; above 69.2 µM in [9]; 1.06 µM in series [11]; 12.1 µM in [12]. In addition, the selectivity ratio in [8] came to 65. Moreover, the CC50 at 120 h in [10] was 69.2 µM.
In the case of `Cc1c(C(C#N)c2ccccc2C(F)(F)F)nc(SC(C)C)[nH]c1=O` (configuration not stated), the “Ratio EC50” value is reported as 4 in series [1]; 2 in series [3]; above 26 in [7]; above 96 in series [13]; 1 in [14]. For the same molecule, the IC50 in series [2] came to 5.99 µM. The EC50 in [4] was 3.34 µM; in [5] it was 10.1 µM; in series [6], above 67.6 µM; in [9] it was above 251 µM; in series [11], 2.61 µM; in [12] it was 5.92 µM. For the same molecule, the selectivity ratio in series [8] came to 96. Moreover, the CC50 at 120 h in series [10] is 251 µM.
Take `Cc1c(C(C#N)c2ccc(C(F)(F)F)cc2)nc(SC(C)C)[nH]c1=O` (configuration not stated): the “Ratio EC50” value in series [1] is reported as above 8; in series [3], above 8; in series [7], above 8; in series [13] it was above 8; in series [14], 2. Moreover, the IC50 in series [2] was 13.3 µM. Besides, the EC50 in series [4] is 9.11 µM; in series [5], above 39.8 µM; in [6], above 39.8 µM; in series [9], above 39.8 µM; in [11], 5.3 µM; in series [12], above 39.8 µM. For the same molecule, the selectivity ratio in series [8] came to 8. In addition, in series [10], the CC50 at 120 h was 39.8 µM.
